Each structure is given as a SMILES string. A value given as a limit tells only on which side of the number the result lay.

The subject of one assay is C. neoformans. The assay is described as follows: membrane fluidity, TMA-DPH anisotropy. In kind it is cell-based, Cryptococcus neoformans. The protocol:
Candida albicans cells were incubated for 6 h, and C. neoformans cells were incubated for 9 h at 30°C, washed, then labeled with 2 µM TMA-DPH in PBS for 10 min. […] Mycelia were fixed, and protoplasts were prepared as described previously ([50]). Protoplasts were washed twice and labeled with 2 µM TMA-DPH in PBS for 30 min. For all labeled cultures, parallel and perpendicular fluorescence intensities were measured at 440 nm in a CLARIOstar plate reader (BMG Labtech), and anisotropy was calculated.

Assay [1] concerns A. fumigatus. The assay is described as follows: membrane depolarization, diS-C3(3). In kind it is cell-based, Aspergillus fumigatus. To be noted: diS-C3(3) emission maximum. The protocol: Membrane depolarization was determined using potential-sensitive fluorophore diS-C3(3) (Sigma), as described previously ([51]). Yeast cells and A. fumigatus conidia were treated as described above, then washed with citrate phosphate buffer and labeled with 20 nM diS-C3(3) at a final concentration of 10^6 cells/mL for yeasts and 10^4 conidia/mL for Aspergillus. Cells were transferred to a microplate (Invitrogen), then emission spectra between 560 and 585 nm (λexcitation = 531 nm) were obtained every 12 min for 1 h using a CLARIOstar plate reader (BMG Labtech). The emission λmax was determined at each timepoint.

The subject of assay [2] is A. fumigatus. The assay is described as follows: membrane permeabilization, nucleic acid leakage. In kind it is cell-based, Aspergillus fumigatus. The protocol: Membrane permeabilization was determined by measuring the leakage of nucleic acid into the supernatant ([19]). […] Suspensions were incubated at 30°C with shaking at 200 rpm for 6 h, then passed through a 0.45 µm syringe filter. The A260 of each filtrate was measured with a DS-11 FX +benchtop spectrophotometer (DeNovix).

Another assay has as its system fungal biofilms. The assay is described as follows: biofilm XTT assay, summary across all biofilms tested. To be noted: alone.

Regarding `CCCCCCCCCCn1cc[n+](CC(O)(P(=O)(O)O)P(=O)(O)O)c1` [10-ZOL, Decyl-zoledronate], the “concentration from which anisotropy differs significantly from no-drug control” value in the assay on C. neoformans is reported as 1 × MIC. Also, in the assay on A. fumigatus [1], the membrane depolarization result is reported as “dose-dependent depolarization effect”. In the assay with A. fumigatus [2], the “concentration giving significant increase in leaked nucleic acid” value is on record as at least 1 × MIC. In the assay with fungal biofilms, the SIC80 range is 8 to 128 µg/mL.
